We go through one molecule from patent US12622910B2, “Inhibitors of Bruton's tyrosine kinase and methods of their use” (Janssen Pharmaceutica NV, priority 2021, dated 2026).

The subject of one series is Caco-2. Description: Caco-2 permeability. Type of series: in vitro ADME. Conditions: Caco-2, 5 μM. (Caco-2 cells form a polarised layer with tight junctions and transporters.)
The nature of a further series: Caco-2 permeability. Type of series: in vitro ADME. Conditions: human.
The nature of series [1]: Metabolic stability in liver microsomes. Type of series: in vitro ADME, mouse. On the procedure: Additional Data on Preclinical PK Profile—Protein binding of the compound of Formula (III) was studied using an equilibrium dialysis method in plasma from human, cynomolgus monkey, beagle dog, Sprague Dawley rat, CD-1 mouse, and guinea pig at 0.25, 2.5, and 25 μM. […] In human and monkey, the plasma protein binding was concentration dependent. […] Free fraction of the compound of Formula (III) in liver microsomes from various species ranged from 75.1% to 87.9% at 0.25 mg/mL and from 58.9% to 86.5% at 1.0 mg/mL (Table 17). […] In hepatocytes, the compound of Formula (III) turnover followed a similar trend, with T1/2 ranging from 75.3 minutes in monkey to 278.1 minutes in human.
In general terms: Liver microsomes are vesicles of endoplasmic reticulum, rich in cytochrome P450 enzymes.

SMILES strings stand for the structures.

With `C=CC(=O)N[C@H]1CCC[C@H]1NC(=O)c1sc2nccc3c2c1NC(=O)N3c1cnc(CC(C)C)cc1C` (atropisomer, axis not shown) [compound of Formula (III), N-((1R,2S)-2-Acrylamidocyclopentyl)-5-(S)-(6-isobutyl-4-methylpyridin-3-yl)-4-oxo-4,5-dihydro-3H-1-thia-3,5,8-triazaacenaphthylene-2-carboxamide], in the series on Caco-2, the “Papp A to B” value was 6.69 10^−6 cm/s and the “Papp B to A” value is reported as 54.9 10^−6 cm/s. The efflux ratio at 5 μM in “Caco-2 permeability” (Caco-2, read-out: Efflux Ratio (BA/AB)) stood at 8.2. For the same molecule, in the series “Caco-2 permeability” (Caco-2, 5 μM), the apparent permeability from apical to basolateral (Papp A→B) – broadly, the apparent permeability from the apical to the basolateral side of a cell layer – at 5 μM is 6.69 ×10⁻⁶ cm/s and the basolateral-to-apical permeability (Papp B→A) (usually how fast a substance crosses the layer from the basolateral side) at 5 μM was determined as 54.9 ×10⁻⁶ cm/s. Moreover, the “Extraction Ratio, liver microsomes” value in series [1] (Mouse) is recorded as 0.79. Moreover, in series [1] (mouse, liver microsomes), the intrinsic metabolic clearance (microsomal CLint) (commonly the capacity of the preparation to metabolise the compound, expressed as a volume cleared per time) came out at 142 µL/min/mg. Moreover, in series [1] (mouse, liver microsomes, read-out: T1/2, liver microsomes), the half-life amounted to 4.9 min.
